Assay [1] addresses T1, Serine/threonine-protein kinase DCLK2 (Homo sapiens) (UniProt Q8N568).
T1 sequence (whole entry): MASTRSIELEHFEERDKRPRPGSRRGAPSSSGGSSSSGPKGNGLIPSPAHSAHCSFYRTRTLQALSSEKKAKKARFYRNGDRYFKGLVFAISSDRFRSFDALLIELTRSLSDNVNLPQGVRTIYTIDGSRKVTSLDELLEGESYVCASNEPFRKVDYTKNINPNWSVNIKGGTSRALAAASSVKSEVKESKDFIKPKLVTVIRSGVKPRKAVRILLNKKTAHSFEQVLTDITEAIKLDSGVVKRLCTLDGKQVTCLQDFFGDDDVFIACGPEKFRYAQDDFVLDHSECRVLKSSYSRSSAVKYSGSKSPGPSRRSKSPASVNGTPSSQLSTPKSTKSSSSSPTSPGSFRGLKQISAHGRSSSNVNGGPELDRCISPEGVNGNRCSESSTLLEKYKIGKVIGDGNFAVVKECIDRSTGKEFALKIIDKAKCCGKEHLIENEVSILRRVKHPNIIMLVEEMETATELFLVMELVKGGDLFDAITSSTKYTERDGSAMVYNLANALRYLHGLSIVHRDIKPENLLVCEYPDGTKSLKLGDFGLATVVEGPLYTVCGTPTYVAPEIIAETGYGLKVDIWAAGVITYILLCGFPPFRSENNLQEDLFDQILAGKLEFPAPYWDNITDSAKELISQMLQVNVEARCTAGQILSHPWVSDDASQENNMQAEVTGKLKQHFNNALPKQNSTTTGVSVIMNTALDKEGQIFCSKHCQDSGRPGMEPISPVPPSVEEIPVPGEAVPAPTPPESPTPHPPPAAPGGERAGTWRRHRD
The assay can be described thus: Inhibition of human recombinant DCAMKL2 at 40 nM related to control ULK1.

In assay [2] the target is T2, Mitogen-activated protein kinase 13 (Homo sapiens) (UniProt O15264).
T2 sequence (whole entry): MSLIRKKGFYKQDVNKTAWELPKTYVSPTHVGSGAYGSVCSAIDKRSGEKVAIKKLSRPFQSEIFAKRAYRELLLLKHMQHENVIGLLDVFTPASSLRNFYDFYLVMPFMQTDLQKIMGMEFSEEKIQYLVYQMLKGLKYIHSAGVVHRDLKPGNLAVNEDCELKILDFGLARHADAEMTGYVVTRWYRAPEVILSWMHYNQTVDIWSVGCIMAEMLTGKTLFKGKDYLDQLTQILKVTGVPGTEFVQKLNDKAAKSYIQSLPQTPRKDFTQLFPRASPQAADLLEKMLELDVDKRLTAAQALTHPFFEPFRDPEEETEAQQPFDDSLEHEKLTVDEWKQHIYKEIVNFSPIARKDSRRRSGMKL
The experiment in a line: Inhibition of human recombinant p38delta at 40 nM in presence of ATP by radiometric assay relative to control.

Assay [3] concerns the target Protein kinase C beta type (Homo sapiens) (UniProt P05771). The experiment in a line: Inhibition of human recombinant PKCb at 40 nM in presence of ATP by radiometric assay relative to control.
Assay [4] concerns the target Serine/threonine-protein kinase pim-1 (Homo sapiens) (UniProt P11309). The experiment in a line: Inhibition of human recombinant PIM1 at 40 nM related to control ULK1.
Assay [5] has as its target Serine/threonine-protein kinase pim-2 (Homo sapiens) (UniProt Q9P1W9). The experiment in a line: Inhibition of human recombinant PIM2 at 40 nM in presence of ATP by radiometric assay relative to control.
The target in assay [6] is Serine/threonine-protein kinase SBK1 (Homo sapiens) (UniProt Q52WX2). The assay can be described thus: Inhibition of human recombinant SBK1 at 500 nM related to control ULK1.
The target of assay [7] is T3, Beta-adrenergic receptor kinase 1 (Homo sapiens) (UniProt P25098).
T3 sequence (whole entry): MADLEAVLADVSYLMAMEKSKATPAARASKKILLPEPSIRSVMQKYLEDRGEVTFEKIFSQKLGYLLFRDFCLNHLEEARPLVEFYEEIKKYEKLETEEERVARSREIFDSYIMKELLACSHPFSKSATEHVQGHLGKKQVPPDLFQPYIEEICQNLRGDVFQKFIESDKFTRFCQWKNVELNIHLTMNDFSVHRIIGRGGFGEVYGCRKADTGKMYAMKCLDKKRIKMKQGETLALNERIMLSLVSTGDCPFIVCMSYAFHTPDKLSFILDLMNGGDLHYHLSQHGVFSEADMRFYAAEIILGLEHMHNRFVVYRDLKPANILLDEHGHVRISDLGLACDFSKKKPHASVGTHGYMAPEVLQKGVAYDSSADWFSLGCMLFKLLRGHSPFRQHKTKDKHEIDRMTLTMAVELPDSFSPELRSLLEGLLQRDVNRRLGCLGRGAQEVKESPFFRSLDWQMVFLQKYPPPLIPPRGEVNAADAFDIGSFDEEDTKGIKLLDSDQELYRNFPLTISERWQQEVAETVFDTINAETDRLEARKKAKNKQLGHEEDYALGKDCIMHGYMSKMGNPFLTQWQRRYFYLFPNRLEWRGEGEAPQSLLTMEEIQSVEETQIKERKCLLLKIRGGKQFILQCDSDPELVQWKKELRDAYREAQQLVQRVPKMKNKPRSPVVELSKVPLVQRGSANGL
The experiment in a line: Inhibition of human recombinant BARK1 at 500 nM related to control ULK1.

The target of assay [8] is Ribosomal protein S6 kinase alpha-1 (Homo sapiens) (UniProt Q15418). The experiment in a line: Inhibition of human recombinant RSK1 at 500 nM related to control ULK1.
In assay [9] the target is Vascular endothelial growth factor receptor 2 (Homo sapiens) (UniProt P35968). The experiment in a line: Inhibition of human recombinant KDR at 500 nM in presence of ATP by radiometric assay relative to control.
Assay [10] deals with Ribosomal protein S6 kinase alpha-2 (Homo sapiens) (UniProt Q15349). The assay can be described thus: Inhibition of human recombinant RSK3 at 500 nM related to control ULK1.
The target in assay [11] is Angiopoietin-1 receptor (Homo sapiens) (UniProt Q02763). The experiment in a line: Inhibition of human recombinant Tie2 at 500 nM in presence of ATP by radiometric assay relative to control.
In assay [12] the target is Maternal embryonic leucine zipper kinase (Homo sapiens) (UniProt Q14680). The experiment in a line: Inhibition of human recombinant MELK at 15 nM in presence of ATP by radiometric assay relative to control.
Assay [13] has as its target Dual specificity protein kinase CLK2 (Homo sapiens) (UniProt P49760). The experiment in a line: Inhibition of human recombinant CLK2 at 15 nM in presence of ATP by radiometric assay relative to control.
Assay [14] addresses T2, Mitogen-activated protein kinase 13 (Homo sapiens). The assay can be described thus: Inhibition of human recombinant p38delta at 15 nM related to control ULK1.
Assay [15] deals with Fibroblast growth factor receptor 2 (Homo sapiens) (UniProt P21802). The assay can be described thus: Inhibition of human recombinant FGFR2 at 15 nM related to control ULK1.
Assay [16] addresses Insulin receptor (Homo sapiens) (UniProt P06213). The experiment in a line: Inhibition of human recombinant INSR at 15 nM in presence of ATP by radiometric assay relative to control.
Assay [17] deals with Ribosomal protein S6 kinase alpha-1 (Homo sapiens) (UniProt Q15418). The experiment in a line: Inhibition of human recombinant RSK1 at 15 nM in presence of ATP by radiometric assay relative to control.

Chain of Ribosomal protein S6 kinase alpha-1 (Homo sapiens) (Q15418 whole entry): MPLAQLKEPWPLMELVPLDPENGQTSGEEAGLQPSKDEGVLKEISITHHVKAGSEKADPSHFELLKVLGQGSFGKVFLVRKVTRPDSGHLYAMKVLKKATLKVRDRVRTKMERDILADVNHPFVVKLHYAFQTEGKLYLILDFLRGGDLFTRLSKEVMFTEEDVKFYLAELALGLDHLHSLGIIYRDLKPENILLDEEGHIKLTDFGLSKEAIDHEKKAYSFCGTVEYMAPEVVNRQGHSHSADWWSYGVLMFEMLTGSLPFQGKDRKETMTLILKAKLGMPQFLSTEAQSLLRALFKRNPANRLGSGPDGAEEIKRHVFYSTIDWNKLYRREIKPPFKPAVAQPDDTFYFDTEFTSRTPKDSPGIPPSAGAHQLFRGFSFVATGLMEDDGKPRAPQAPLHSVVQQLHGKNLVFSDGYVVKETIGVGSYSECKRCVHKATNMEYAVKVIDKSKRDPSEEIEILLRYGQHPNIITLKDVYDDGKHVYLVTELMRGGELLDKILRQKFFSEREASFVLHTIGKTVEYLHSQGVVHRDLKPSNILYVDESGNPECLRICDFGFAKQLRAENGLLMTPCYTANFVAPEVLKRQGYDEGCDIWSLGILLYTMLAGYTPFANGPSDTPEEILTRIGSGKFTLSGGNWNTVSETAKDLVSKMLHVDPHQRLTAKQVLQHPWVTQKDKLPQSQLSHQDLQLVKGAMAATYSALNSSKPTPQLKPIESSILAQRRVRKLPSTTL
Chain of Fibroblast growth factor receptor 2 (Homo sapiens) (P21802 22-821 limits assumed): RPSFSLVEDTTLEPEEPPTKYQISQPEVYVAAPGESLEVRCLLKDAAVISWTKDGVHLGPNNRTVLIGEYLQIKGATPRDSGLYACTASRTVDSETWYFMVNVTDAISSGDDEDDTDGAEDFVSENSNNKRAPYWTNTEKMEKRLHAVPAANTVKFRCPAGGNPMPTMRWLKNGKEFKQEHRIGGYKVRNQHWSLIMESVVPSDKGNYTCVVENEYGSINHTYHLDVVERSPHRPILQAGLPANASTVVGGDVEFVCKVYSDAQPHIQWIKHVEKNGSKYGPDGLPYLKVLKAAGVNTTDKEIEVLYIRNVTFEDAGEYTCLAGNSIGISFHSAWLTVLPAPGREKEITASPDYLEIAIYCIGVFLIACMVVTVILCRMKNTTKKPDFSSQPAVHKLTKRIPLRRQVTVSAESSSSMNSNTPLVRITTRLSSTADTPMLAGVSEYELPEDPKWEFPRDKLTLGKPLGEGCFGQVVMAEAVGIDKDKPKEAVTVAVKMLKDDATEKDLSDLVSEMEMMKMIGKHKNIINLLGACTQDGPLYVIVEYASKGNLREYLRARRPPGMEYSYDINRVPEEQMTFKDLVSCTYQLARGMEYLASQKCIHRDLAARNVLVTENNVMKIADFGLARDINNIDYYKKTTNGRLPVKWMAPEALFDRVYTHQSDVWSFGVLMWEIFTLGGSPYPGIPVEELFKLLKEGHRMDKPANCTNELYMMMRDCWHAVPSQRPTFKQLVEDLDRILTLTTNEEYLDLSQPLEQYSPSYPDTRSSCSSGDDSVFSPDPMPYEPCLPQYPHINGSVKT
Chain of Ribosomal protein S6 kinase alpha-2 (Homo sapiens) (Q15349 whole entry): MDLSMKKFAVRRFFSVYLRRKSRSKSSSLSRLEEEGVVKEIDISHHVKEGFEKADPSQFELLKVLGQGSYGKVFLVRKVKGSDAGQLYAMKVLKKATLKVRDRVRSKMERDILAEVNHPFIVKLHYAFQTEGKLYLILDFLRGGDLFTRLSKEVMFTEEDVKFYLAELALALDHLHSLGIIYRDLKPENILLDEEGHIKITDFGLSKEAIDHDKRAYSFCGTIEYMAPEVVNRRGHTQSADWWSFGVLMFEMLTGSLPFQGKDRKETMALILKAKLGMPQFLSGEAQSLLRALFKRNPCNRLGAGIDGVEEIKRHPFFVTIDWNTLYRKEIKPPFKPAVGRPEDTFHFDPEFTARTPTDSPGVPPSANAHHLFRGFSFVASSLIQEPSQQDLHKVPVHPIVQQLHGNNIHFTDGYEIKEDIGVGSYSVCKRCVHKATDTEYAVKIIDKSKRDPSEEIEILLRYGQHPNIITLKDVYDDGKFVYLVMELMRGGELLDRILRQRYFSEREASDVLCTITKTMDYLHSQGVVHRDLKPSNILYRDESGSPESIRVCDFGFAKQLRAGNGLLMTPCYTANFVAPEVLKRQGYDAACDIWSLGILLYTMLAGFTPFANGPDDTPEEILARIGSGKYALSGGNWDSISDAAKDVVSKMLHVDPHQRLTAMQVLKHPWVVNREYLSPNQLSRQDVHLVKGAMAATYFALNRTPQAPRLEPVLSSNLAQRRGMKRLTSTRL
Chain of Dual specificity protein kinase CLK2 (Homo sapiens) (P49760 whole entry, looked up): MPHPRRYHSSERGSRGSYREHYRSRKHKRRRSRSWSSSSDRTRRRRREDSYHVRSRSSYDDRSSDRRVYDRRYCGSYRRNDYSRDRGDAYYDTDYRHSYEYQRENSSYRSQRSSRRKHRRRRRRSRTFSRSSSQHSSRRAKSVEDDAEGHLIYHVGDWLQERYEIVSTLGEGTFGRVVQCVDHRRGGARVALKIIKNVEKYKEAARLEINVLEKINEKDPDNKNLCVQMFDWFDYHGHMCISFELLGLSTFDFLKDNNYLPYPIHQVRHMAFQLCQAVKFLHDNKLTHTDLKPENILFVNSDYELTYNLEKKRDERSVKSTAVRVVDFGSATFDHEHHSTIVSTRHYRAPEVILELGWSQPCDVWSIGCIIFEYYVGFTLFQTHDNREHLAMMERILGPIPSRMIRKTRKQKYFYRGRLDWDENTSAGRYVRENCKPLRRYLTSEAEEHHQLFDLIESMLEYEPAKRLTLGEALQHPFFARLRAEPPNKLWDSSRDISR
Chain of Insulin receptor (Homo sapiens) (P06213 28-758 limits assumed): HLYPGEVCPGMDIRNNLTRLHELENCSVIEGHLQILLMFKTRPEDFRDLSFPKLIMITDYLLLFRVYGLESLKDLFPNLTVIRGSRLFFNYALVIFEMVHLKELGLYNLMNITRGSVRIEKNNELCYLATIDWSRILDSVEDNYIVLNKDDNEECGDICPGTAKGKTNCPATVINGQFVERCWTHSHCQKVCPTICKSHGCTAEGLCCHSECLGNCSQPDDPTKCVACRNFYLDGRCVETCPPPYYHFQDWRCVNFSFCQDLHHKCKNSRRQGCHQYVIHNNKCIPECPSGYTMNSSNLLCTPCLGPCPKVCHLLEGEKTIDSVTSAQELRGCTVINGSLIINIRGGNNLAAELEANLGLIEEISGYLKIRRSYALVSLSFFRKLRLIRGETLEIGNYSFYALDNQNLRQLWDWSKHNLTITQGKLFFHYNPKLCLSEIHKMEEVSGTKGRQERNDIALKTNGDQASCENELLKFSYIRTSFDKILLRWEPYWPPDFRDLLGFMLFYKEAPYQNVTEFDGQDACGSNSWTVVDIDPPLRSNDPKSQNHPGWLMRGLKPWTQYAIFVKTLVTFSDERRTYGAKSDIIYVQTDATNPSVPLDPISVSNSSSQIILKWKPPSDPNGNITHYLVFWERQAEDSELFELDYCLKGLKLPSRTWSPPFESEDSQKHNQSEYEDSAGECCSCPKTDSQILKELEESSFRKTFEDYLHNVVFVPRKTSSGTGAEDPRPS
Chain of Insulin receptor (Homo sapiens) (P06213 763-1382 limits assumed): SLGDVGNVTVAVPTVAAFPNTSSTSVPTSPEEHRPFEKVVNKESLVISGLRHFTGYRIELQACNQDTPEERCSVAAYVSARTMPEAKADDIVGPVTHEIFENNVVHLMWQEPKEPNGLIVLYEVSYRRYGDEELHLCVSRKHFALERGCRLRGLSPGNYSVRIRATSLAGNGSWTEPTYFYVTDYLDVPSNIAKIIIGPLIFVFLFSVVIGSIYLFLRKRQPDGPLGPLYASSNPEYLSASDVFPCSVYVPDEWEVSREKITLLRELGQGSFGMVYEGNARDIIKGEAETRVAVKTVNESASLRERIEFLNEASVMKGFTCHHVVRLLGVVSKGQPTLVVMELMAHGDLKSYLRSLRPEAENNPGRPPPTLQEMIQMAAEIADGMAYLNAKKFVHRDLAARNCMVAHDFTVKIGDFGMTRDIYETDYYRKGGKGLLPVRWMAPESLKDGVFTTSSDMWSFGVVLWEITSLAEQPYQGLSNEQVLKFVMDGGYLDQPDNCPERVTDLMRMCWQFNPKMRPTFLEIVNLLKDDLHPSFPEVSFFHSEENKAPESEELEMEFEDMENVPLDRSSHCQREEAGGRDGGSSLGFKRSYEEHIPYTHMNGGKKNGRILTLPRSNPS
Chain of Serine/threonine-protein kinase SBK1 (Homo sapiens) (Q52WX2 whole entry): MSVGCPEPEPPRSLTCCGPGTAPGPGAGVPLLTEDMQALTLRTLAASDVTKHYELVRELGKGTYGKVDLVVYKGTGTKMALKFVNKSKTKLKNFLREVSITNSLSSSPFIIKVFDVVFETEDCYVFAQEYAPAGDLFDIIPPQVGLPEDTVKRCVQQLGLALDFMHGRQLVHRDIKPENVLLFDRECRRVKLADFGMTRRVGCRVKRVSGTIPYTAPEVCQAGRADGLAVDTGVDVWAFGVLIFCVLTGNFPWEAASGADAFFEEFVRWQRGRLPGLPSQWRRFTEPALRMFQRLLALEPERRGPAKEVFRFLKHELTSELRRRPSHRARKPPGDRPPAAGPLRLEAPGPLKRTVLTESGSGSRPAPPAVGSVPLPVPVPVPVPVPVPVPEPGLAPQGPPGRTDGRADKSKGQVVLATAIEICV
Chain of Serine/threonine-protein kinase pim-2 (Homo sapiens) (Q9P1W9 whole entry, looked up): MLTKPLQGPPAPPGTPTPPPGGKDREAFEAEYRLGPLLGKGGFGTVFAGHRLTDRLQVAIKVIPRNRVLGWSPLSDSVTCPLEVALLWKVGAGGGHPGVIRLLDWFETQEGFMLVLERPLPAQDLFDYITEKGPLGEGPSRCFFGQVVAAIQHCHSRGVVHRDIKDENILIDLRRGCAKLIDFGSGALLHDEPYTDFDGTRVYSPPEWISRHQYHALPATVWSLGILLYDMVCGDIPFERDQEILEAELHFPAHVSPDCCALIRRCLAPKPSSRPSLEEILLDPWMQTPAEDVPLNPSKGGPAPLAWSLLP

The inhibition is how much of the control response was suppressed. For the compound `O=C(N[C@@H](C1CC1)C(F)(F)F)c1cc(-c2cnn3cc(-c4ccc(F)cc4)cnc23)cs1`, the results for the fold change (FC) in assay [1] and in assay [4] were 0 and 0.07, respectively. Moreover, the inhibition came to 12% in [2], 3% in assay [3] and 3% in [5].
On to `CNC(=O)c1ccccc1Oc1nc(Nc2cc(OC)c(OC)c(OC)c2)ncc1Br`, for which the fold change (FC) was found to be 0.68 in assay [6], 0.11 in assay [7], 0.26 in [8] and 0.66 in assay [10]. In addition, the inhibition in assay [9] was found to be 0%; in assay [11], 23%.
For the compound `CC(C)[C@H](NC(=O)c1cc(-c2cnn3cc(-c4ccc(OCCN5CCCCC5)cc4)cnc23)cs1)C(F)(F)F`, the inhibition was 67% in assay [12], 29% in [13], 0% in assay [16] and 23% in assay [17]. The values for the fold change (FC) in assay [14] and in assay [15] were 0.07 and 0, respectively.

Source of the values: ChEMBL document CHEMBL5653631, “A Potent and Selective ULK1 Inhibitor Suppresses Autophagy and Sensitizes Cancer Cells to Nutrient Stress” (iScience, 2018).
